Measured values: US11406576B2, “Method for removing keratotic plugs” (KAO CORPORATION, priority 2017, dated 2022)

How the values were obtained:
[1] = cited from earlier work
[2] = Detergency against keratotic plugs: penetration of the sample into keratotic plugs; design: species or system human; details: keratotic plugs kept in contact with sample for 1 minute; results of Table 1
Description: (§1) Keratotic plugs in the nasal region were removed with “Biore Nose Pack (manufactured by Kao Corporation)”, the resulting keratotic plugs on the pack were gently taken out with tweezers.
(§2) The resulting keratotic plugs were placed on a slide glass and were covered with a cover glass, and 0.05 mL of a sample was dropwise added to an edge of the cover glass. Consequently, the sample entered into the gap between the slide glass and the cover glass by capillary phenomenon and was brought into contact with the keratotic plugs. The contact of the keratotic plugs with the sample was recorded with a digital microscope (VHX-5000, manufactured by Keyence Corporation, magnification: ×150), and the penetration of the sample into the keratotic plugs and the collapse state of the keratotic plugs were evaluated after one minute from the contact of the keratotic plugs with the sample. The results of each evaluation are shown in the columns “Detergency against keratotic plugs (penetration)” and “Detergency against keratotic plugs (during cleansing)” in Tables. The measurements were performed at 25° C.
(§3) The penetration was relatively evaluated by 11 criteria from the state 1 “the sample hardly penetrated into the keratotic plug” to the state 11 “the sample penetrated to the center of the keratotic plug”. The collapsibility by the detergency against keratotic plugs was relatively evaluated by 11 criteria from the state 1 “almost no change is observed in the external appearance of the keratotic plug” to the state 11 “peeling or separation is observed in the area from the surface layer to the central portion of the keratotic plug (the initial appearance of the keratotic plug is not retained)”.

[3] = Detergency against keratotic plugs after washing with water (collapse state); design: species or system human; details: keratotic plugs kept in contact with water for 1 minute after contact with sample
Excerpt: as §3
After one minute from the contact of the keratotic plugs with the sample, KimWipes (registered trademark) was brought into contact with an edge of the cover glass to remove the sample under the cover glass. Subsequently, 0.05 mL of water was dropwise added to an edge of the cover glass. The sample dropwise added with water was recorded with the digital microscope, and the collapse state of the keratotic plugs was evaluated after one minute from the contact of the keratotic plugs with water according to the criteria for evaluating collapsibility of the keratotic plugs. The results of the evaluation are shown in the column “Detergency against keratotic plugs (after washing with water)” in Table. The measurements were performed at 25° C.

[4] = Detergency against keratotic plugs during cleansing (collapse state); design: species or system human; details: keratotic plugs kept in contact with sample for 1 minute; results of Table 1
Description: as §1, §2, §3

[5] = tested on: insoluble protein (zein protein); assay: Effect of suppressing protein aggregation (precipitation of insoluble protein); details: results of Table 1
Description: Thirty milliliters of a sample and 0.06 g of an insoluble protein (zein protein) were placed in a 35-mL standard glass bottle, and the concentration of the insoluble protein was adjusted to 0.2 mass % (test sample). Separately, a standard sample was prepared by using water instead of the sample and adjusting the concentration of the insoluble protein to 0.2 mass %. Subsequently, the standard glass bottles were sufficiently shaken and stirred up and down (shake width: 15 cm, 20 times at a shake rate of 5 times per 3 seconds) in a thermostatic chamber of 25° C. and were left to stand for 3 minutes. The precipitation state of the insoluble protein was then visually verified, and the ratio of the amount of the precipitated standard sample to the amount of the precipitated test sample (the height of the precipitate in each standard glass bottle was measured as the precipitation amount), (precipitation amount of standard sample)/(precipitation amount of test sample), was calculated. A higher ratio indicates a higher effect of suppressing protein aggregation.

Molecule: CC(C)(N)CO [AMP, 2-amino-2-methyl-1-propanol]
- solubility in water (in words) [1]: readily dissolved in water
- penetration into keratotic plugs (in words) [2]: penetrated into keratotic plugs
- collapse of keratotic plugs on contact with water after the sample (in words) [3]: accelerating the collapse

Molecule: CC(N)(CO)CO [AMPD, 2-amino-2-methyl-1,3-propanediol]
- penetration into keratotic plugs (in words) [2]: penetrated into keratotic plugs
- collapse of keratotic plugs on contact with water after the sample (in words) [3]: accelerating the collapse

Molecule: NC(CO)(CO)CO [Tris, 2-amino-2-hydroxymethyl-1,3-propanediol]
- solubility in water (in words) [1]: readily dissolved in water
- penetration into keratotic plugs (in words) [2]: penetrated into keratotic plugs
- collapse of keratotic plugs on contact with water after the sample (in words) [3]: accelerating the collapse

Molecule: O=P([O-])([O-])O.[Na+].[Na+] [disodium hydrogen phosphate]
- penetration into keratotic plugs (in words) [2]: hardly penetrated into keratotic plugs
- collapse of keratotic plugs on contact with water after the sample (in words) [3]: did not progress
- collapse of keratotic plugs on contact with sample (in words) [4]: did not progress

Molecule: O=C([O-])O.[Na+] [sodium hydrogen carbonate]
- penetration into keratotic plugs (in words) [2]: hardly penetrated into keratotic plugs
- collapse of keratotic plugs on contact with water after the sample (in words) [3]: did not progress
- collapse of keratotic plugs on contact with sample (in words) [4]: did not progress

Molecule: O=P([O-])([O-])[O-].[Na+].[Na+].[Na+] [trisodium phosphate]
- penetration into keratotic plugs (in words) [2]: hardly penetrated into keratotic plugs
- collapse of keratotic plugs on contact with water after the sample (in words) [3]: did not progress
- collapse of keratotic plugs on contact with sample (in words) [4]: did not progress

Molecule: sodium polyoxyethylene (2) lauryl ether sulfate [POE (2) sodium lauryl sulfate]
- penetration into keratotic plugs (in words) [2]: hardly penetrated into the keratotic plugs
- action on proteins (in words) [5]: dissolve the proteins
- collapse of keratotic plugs on contact with sample (in words) [4]: did not progress
